In patent US6844294B2, “Synergistic herbicidal compositions comprising herbicides from the benzoylcyclohexanedione group for use in rice crops” (Aventis CropScience GmbH, priority 2001, dated 2005):

Key:
Assay type in all cases: in vivo
[1] = system: SAGPY Sagittaria pygmaea; experiment: Herbicidal action on SAGPY, visual scoring on a percentage scale vs untreated control
From the text: (§1) Seeds or root segments of monocotyledonous and dicotyledonous harmful plants are placed in sandy loam in pots and covered with soil. In the case of spray application, the compositions formulated as concentrated aqueous solutions, wettable powders or emulsion concentrates, are then applied to the surface of the covering soil as aqueous solution, suspension or emulsion, respectively, at an application rate of 600 to 800 l of water per ha (converted) in a variety of dosages. Immediately to a few days after the application, the test containers are flooded with water up to a depth of 30 mm above the soil surface. In the case of submerged application, in contrast, the soil in the closed test container is already covered with paddy water up to a depth of 30 mm at the time of application. Here, the formulated active ingredients are added directly to the paddy water, for example in the form of granules. After the treatment, the pots are placed in a greenhouse and kept under good growth conditions for the weeds. […] When using suitable low dosages, the values observed in the experiments show an effect of the combinations which exceed the expected values calculated using Colby's formula.
(§2) The herbicidal efficacy of the active ingredients or active ingredient mixtures was scored visually by comparing the treated variants with untreated control variants. The damage and development of all aerial plant parts was recorded. […]
Seeds or root segments of monocotyledonous and dicotyledonous weeds are placed in sandy loam in pots, covered with soil and grown in the greenhouse under good growth conditions (temperature, atmospheric humidity, water supply). […] After the experimental plants have remained in the greenhouse under optimal growth conditions for a further 3 to 4 weeks, the effect of the preparations is scored visually in comparison with untreated controls. […] When using suitable low dosages, the values observed in the experiments show an effect of the combinations which exceed the expected values calculated using Colby's formula. […]

[2] = system: SCPJU Scirpus juncoides; experiment: Herbicidal action on SCPJU, visual scoring on a percentage scale vs untreated control
From the text: (§3) Seeds or root segments of monocotyledonous and dicotyledonous harmful plants are placed in sandy loam in pots and covered with soil. In the case of spray application, the compositions formulated as concentrated aqueous solutions, wettable powders or emulsion concentrates, are then applied to the surface of the covering soil as aqueous solution, suspension or emulsion, respectively, at an application rate of 600 to 800 l of water per ha (converted) in a variety of dosages. Immediately to a few days after the application, the test containers are flooded with water up to a depth of 30 mm above the soil surface. In the case of submerged application, in contrast, the soil in the closed test container is already covered with paddy water up to a depth of 30 mm at the time of application. Here, the formulated active ingredients are added directly to the paddy water, for example in the form of granules. After the treatment, the pots are placed in a greenhouse and kept under good growth conditions for the weeds. Visual scoring of the plant damage or the adverse effect on the emergence is carried out after the test plants have emerged after an experimental period of 3 to 4 weeks in comparison with untreated controls. […] Frequently, effects of the combinations according to the invention are observed which exceed the formal total of the effects when the herbicides are applied individually. When using suitable low dosages, the values observed in the experiments show an effect of the combinations which exceed the expected values calculated using Colby's formula.
(§4) The herbicidal efficacy of the active ingredients or active ingredient mixtures was scored visually by comparing the treated variants with untreated control variants. The damage and development of all aerial plant parts was recorded. Scoring was done on a percentage scale (100% action=all plants dead; 50% action=50% of the plants and green plant parts dead; 0% action=no discernible action=like untreated control plot).
(§5) Seeds or root segments of monocotyledonous and dicotyledonous weeds are placed in sandy loam in pots, covered with soil and grown in the greenhouse under good growth conditions (temperature, atmospheric humidity, water supply). Approximately three weeks after planting, the experimental plants are treated with the compositions according to the invention. In the case of spray application, the compositions according to the invention, which are formulated as wettable powders or emulsion concentrates, are sprayed onto the green plant parts in various dosages with an application rate of 600 to 800 l of water per ha (converted). Immediately to a few days after the application, the test containers are flooded with water up to a depth of 30 mm above the soil surface. In the case of submerged application, in contrast, the soil in the closed test container is already covered with paddy water up to a depth of 30 mm at the time of application. Here, the formulated active ingredients are added directly to the paddy water. After the experimental plants have remained in the greenhouse under optimal growth conditions for a further 3 to 4 weeks, the effect of the preparations is scored visually in comparison with untreated controls. The compositions according to the invention also have an outstanding herbicidal action against a broad spectrum of economically important grass weeds and broad-leaved weeds when applied post-emergence. Frequently, effects of the combinations according to the invention are observed which exceed the formal total of the effects when the herbicides are applied individually. When using suitable low dosages, the values observed in the experiments show an effect of the combinations which exceed the expected values calculated using Colby's formula.
Crop plants were grown in the open on plots under natural field conditions, seeds or root segments of typical harmful plants having been planted and the natural weed flora being exploited. […]

[3] = system: SEBEX Sesbania exaltata; experiment: Herbicidal action on SEBEX, visual scoring on a percentage scale vs untreated control
From the text: as §3, §4
as §5, with “The compositions according to the invention also have an outstanding herbicidal action against a broad spectrum of economically important grass weeds and broad-leaved weeds when applied post-emergence. Frequently, effects of the combinations according to the invention are observed which exceed the formal total of the effects when the herbicides are applied individually.” left out, “formula. […]” for “formula.”

[4] = system: CYPSE; experiment: Herbicidal action on CYPSE, visual scoring on a percentage scale vs untreated control
[5] = system: MOOVA; experiment: Herbicidal action on MOOVA, visual scoring on a percentage scale vs untreated control
From the text: as §1, with “granules.” for “granules. After the treatment, the pots are placed in a greenhouse and kept under good growth conditions for the weeds.”
as §2

[6] = system: CHEAL; experiment: Herbicidal action on CHEAL, visual scoring on a percentage scale vs untreated control
From the text: as §1, with “granules.” for “granules. After the treatment, the pots are placed in a greenhouse and kept under good growth conditions for the weeds.”
as §2

[7] = system: PHBPU; experiment: Herbicidal action on PHBPU, visual scoring on a percentage scale vs untreated control
From the text: as §3, §4
as §5, with “The compositions according to the invention also have an outstanding herbicidal action against a broad spectrum of economically important grass weeds and broad-leaved weeds when applied post-emergence. Frequently, effects of the combinations according to the invention are observed which exceed the formal total of the effects when the herbicides are applied individually.” left out, “formula. […]” for “formula.”

[8] = system: ECHOR; experiment: Herbicidal action on ECHOR, visual scoring on a percentage scale vs untreated control; conditions: Example B.XII, dosage 25 g ai/ha
From the text: as §1, with “granules.” for “granules. After the treatment, the pots are placed in a greenhouse and kept under good growth conditions for the weeds.”
as §2

[9] = system: ECHCG; experiment: Herbicidal action on ECHCG, visual scoring on a percentage scale vs untreated control
From the text: as §1, with “granules.” for “granules. After the treatment, the pots are placed in a greenhouse and kept under good growth conditions for the weeds.”
as §2

[10] = Example B.IX, dosage 187 g ai/ha
[11] = Example B.X, dosage 1.8 g ai/ha
[12] = Example B.XIII, dosage 22 g ai/ha
[13] = Example B.IV, dosage 20 g ai/ha
[14] = Example B.XV, dosage 4.3 g ai/ha

## CCN(CC)C(=O)SCc1ccc(Cl)cc1 [Compound B1.2, thiobencarb]
[1]; [10]
  found (herbicidal action): 0%
[2]; [10]
  found (herbicidal action): 20%

## COc1cc(OC)nc(NC(=O)NS(=O)(=O)Cc2ccccc2C(=O)O)n1 [Compound B2.1, bensulfuron]
[3]; Example B.I, dosage 20 g ai/ha
  found (herbicidal action): 45%
[4]; Example B.I, dosage 10 g ai/ha
  found (herbicidal action): 68%

## COc1cc(OC)nc(Oc2cccc(Oc3nc(OC)cc(OC)n3)c2C(=O)O)n1 [Compound B2.2, bispyribac-sodium]
[5]; [11]
  found (herbicidal action): 0%
[2]; [11]
  found (herbicidal action): 0%

## COC(=O)c1c(Cl)nn(C)c1S(=O)(=O)NC(=O)Nc1nc(OC)cc(OC)n1 [Compound B2.5, halosulfuron-methyl]
[1]; Example B.XI, dosage 7.5 g ai/ha
  found (herbicidal action): 0%
[2]; Example B.XI, dosage 15 g ai/ha
  found (herbicidal action): 0%

## CCc1cnc(C2=NC(C)(C(C)C)C(=O)N2)c(C(=O)O)c1 (stereo not shown) [Compound B2.9, imazethapyr]
[6]; Example B.II, dosage 10 g ai/ha
  found (herbicidal action): 5%
[7]; Example B.II, dosage 5 g ai/ha
  found (herbicidal action): 5%

## COc1cc(OC)n2nc(S(=O)(=O)Nc3c(Cl)ccc(C)c3Cl)nc2n1 [Compound B2.13, metosulam]
[3]; B.III, dosage 2.5 g ai/ha
  found (herbicidal action): 30%
[7]; B.III, dosage 2.5 g ai/ha
  found (herbicidal action): 85%

## CC1(C)CON(Cc2ccccc2Cl)C1=O [Compound B3.1, clomazone]
[4]; Example B.XII, dosage 50 g ai/ha
  found (herbicidal action): 0%
[8]
  found (herbicidal action): 30%

## CCCCOC(=O)[C@@H](C)Oc1ccc(Oc2ccc(C#N)cc2F)cc1 [Compound B4.1, cyhalofop-butyl]
[4]; [12]
  found (herbicidal action): 0%
[2]; [12]
  found (herbicidal action): 0%

## CCOC(=O)C(C)Oc1ccc(Oc2nc3ccc(Cl)cc3o2)cc1 (stereo not shown) [Compound B4.2, fenoxaprop-ethyl]
[3]; [13]
  found (herbicidal action): 0%
[7]; [13]
  found (herbicidal action): 0%

## CN(C(=O)COc1nc2ccccc2s1)c1ccccc1 [Compound B5.1, mefenacet]
[1]; Example B.XIV, dosage 63 g ai/ha
  found (herbicidal action): 0%
[2]; Example B.XIV, dosage 125 g ai/ha
  found (herbicidal action): 0%

## CC1=C(c2ccccc2)C(=O)N(C(C)(C)c2cc(Cl)cc(Cl)c2)CO1 [Compound B5.2, oxaziclomefone]
[4]; [14]
  found (herbicidal action): 0%
[2]; [14]
  found (herbicidal action): 0%

## CCC(CC)Nc1c([N+](=O)[O-])cc(C)c(C)c1[N+](=O)[O-] [Compound B7.1, pendimethalin]
[7]; Example B.V, dosage 100 g ai/ha
  found (herbicidal action): 75%
[9]; Example B.V, dosage 200 g ai/ha
  found (herbicidal action): 78%

## CCC(=O)Nc1ccc(Cl)c(Cl)c1 [Compound B8.1, propanil]
[5]; Example B.XVI, dosage 187 g ai/ha
  found (herbicidal action): 0%
[2]; Example B.XVI, dosage 375 g ai/ha
  found (herbicidal action): 0%

## O=C(O)c1c(Cl)ccc2cc(Cl)cnc12 [Compound B9.1, quinclorac]
[3]; Example B.VI, dosage 5 g ai/ha
  found (herbicidal action): 0%
[7]; Example B.VI, dosage 10 g ai/ha
  found (herbicidal action): 78%

## CP(=O)(O)CCC(N)C(=O)O (stereo not shown) [Compound B10.1, glufosinate]
[3]; Example B.VII, dosage 100 g ai/ha
  found (herbicidal action): 5%
[9]; Example B.VII, dosage 50 g ai/ha
  found (herbicidal action): 0%

## O=C(O)CNCP(=O)(O)O [Compound B11.1, glyphosate]
[6]; Example B.VIII, dosage 100 g ai/ha
  found (herbicidal action): 0%
